Data from PubChem BioAssay (NCI).
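Cells were grown in 96-well plates and exposed to each compound for 48 hours at five concentrations; endpoints were interpolated linearly between bracketing concentrations, or set to the highest concentration if not reached. Here, GI50 denotes the concentration required for 50% inhibition of growth. Definition used: TGI = concentration required for complete inhibition of growth.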

What was measured:
Assay in all cases: NCI-60 cell line screen, 48 h
SF-539 CNS = test system: SF-539 CNS
SF-295 CNS = test system: SF-295 CNS
SR leukemia = test system: SR leukemia
IGROV1 ovarian = test system: IGROV1 ovarian
HOP-92 NSCLC = test system: HOP-92 NSCLC
HL-60(TB) leukemia = test system: HL-60(TB) leukemia
TK-10 renal = test system: TK-10 renal
NCI-H23 lung = test system: NCI-H23 lung
A549 NSCLC = test system: A549 NSCLC
SK-MEL-5 melanoma = test system: SK-MEL-5 melanoma
OVCAR-8 ovarian = test system: OVCAR-8 ovarian
MOLT-4 leukemia = test system: MOLT-4 leukemia
SK-MEL-2 melanoma = test system: SK-MEL-2 melanoma
A498 renal = test system: A498 renal
SF-268 CNS = test system: SF-268 CNS
UACC-257 melanoma = test system: UACC-257 melanoma
NCI/ADR-RES ovarian = test system: NCI/ADR-RES ovarian
DU-145 prostate = test system: DU-145 prostate
PC-3 prostate = test system: PC-3 prostate
786-0 renal = test system: 786-0 renal
MDA-MB-231 breast = test system: MDA-MB-231 breast
NCI-H522 lung = test system: NCI-H522 lung
RPMI-8226 leukemia = test system: RPMI-8226 leukemia
KM12 colon = test system: KM12 colon
MCF7 breast = test system: MCF7 breast
SNB-19 CNS = test system: SNB-19 CNS
MALME-3M melanoma = test system: MALME-3M melanoma
SW-620 colon = test system: SW-620 colon
UACC-62 melanoma = test system: UACC-62 melanoma
COLO 205 colon = test system: COLO 205 colon
OVCAR-5 ovarian = test system: OVCAR-5 ovarian
EKVX NSCLC = test system: EKVX NSCLC
M14 melanoma = test system: M14 melanoma
T-47D breast = test system: T-47D breast
HCT-116 colon = test system: HCT-116 colon
HS 578T breast = test system: HS 578T breast
NCI-H460 lung = test system: NCI-H460 lung
MDA-MB-435 = test system: MDA-MB-435
UO-31 renal = test system: UO-31 renal
RXF 393 renal = test system: RXF 393 renal
OVCAR-3 ovarian = test system: OVCAR-3 ovarian
CAKI-1 renal = test system: CAKI-1 renal
SN12C renal = test system: SN12C renal
HCT-15 colon = test system: HCT-15 colon
HOP-62 NSCLC = test system: HOP-62 NSCLC
LOX IMVI melanoma = test system: LOX IMVI melanoma
ACHN renal = test system: ACHN renal
BT-549 breast = test system: BT-549 breast
K-562 leukemia = test system: K-562 leukemia
NCI-H226 lung = test system: NCI-H226 lung
U251 CNS = test system: U251 CNS

SMILES: CCOC(=O)C1CCCCN1C(=O)c1ccc(Nc2cnc3cc(C(F)(F)F)ccc3n2)cc1 (stereo unspecified)
- GI50 (SF-539 CNS): 15.8 µM
- TGI (SF-539 CNS): 37.1 µM
- GI50 (SF-295 CNS): 3.31 µM
- TGI (SF-295 CNS): 9.24 µM
- GI50 (SR leukemia): 3.8 µM
- TGI (SR leukemia): 19.1 µM
- GI50 (IGROV1 ovarian): 19.3 µM
- TGI (IGROV1 ovarian): 40.8 µM
- TGI (HOP-92 NSCLC): 5.93 µM
- GI50 (HL-60(TB) leukemia): 19.1 µM
- TGI (HL-60(TB) leukemia): > 100 µM
- GI50 (TK-10 renal): 13.3 µM
- TGI (TK-10 renal): 28 µM
- GI50 (NCI-H23 lung): 14.7 µM
- TGI (NCI-H23 lung): 28.6 µM
- GI50 (A549 NSCLC): 15 µM
- TGI (A549 NSCLC): 44.2 µM
- GI50 (SK-MEL-5 melanoma): 12.4 µM
- TGI (SK-MEL-5 melanoma): 25.1 µM
- GI50 (OVCAR-8 ovarian): 33.2 µM
- TGI (OVCAR-8 ovarian): > 100 µM
- GI50 (MOLT-4 leukemia): 3.93 µM
- TGI (MOLT-4 leukemia): > 100 µM
- GI50 (SK-MEL-2 melanoma): 23.2 µM
- TGI (SK-MEL-2 melanoma): 67.3 µM
- GI50 (A498 renal): 10.3 µM
- TGI (A498 renal): 22.9 µM
- GI50 (SF-268 CNS): 13.2 µM
- TGI (SF-268 CNS): 32.7 µM
- GI50 (UACC-257 melanoma): 15.7 µM
- TGI (UACC-257 melanoma): 29.8 µM
- GI50 (NCI/ADR-RES ovarian): 14.1 µM
- TGI (NCI/ADR-RES ovarian): 29.2 µM
- GI50 (DU-145 prostate): 20.5 µM
- TGI (DU-145 prostate): 92.2 µM
- GI50 (PC-3 prostate): 11.5 µM
- TGI (PC-3 prostate): 26.9 µM
- GI50 (786-0 renal): 4.82 µM
- TGI (786-0 renal): 16.4 µM
- GI50 (MDA-MB-231 breast): 2.86 µM
- TGI (MDA-MB-231 breast): 5.66 µM
- GI50 (NCI-H522 lung): 30.4 µM
- TGI (NCI-H522 lung): > 100 µM
- GI50 (RPMI-8226 leukemia): 2.2 µM
- TGI (RPMI-8226 leukemia): 6.42 µM
- GI50 (KM12 colon): 13.1 µM
- TGI (KM12 colon): 27.8 µM
- GI50 (MCF7 breast): 10.2 µM
- TGI (MCF7 breast): 25.1 µM
- GI50 (SNB-19 CNS): 21.3 µM
- TGI (SNB-19 CNS): 64.1 µM
- GI50 (MALME-3M melanoma): 6.89 µM
- TGI (MALME-3M melanoma): 22.1 µM
- GI50 (SW-620 colon): 17.8 µM
- TGI (SW-620 colon): 38.5 µM
- GI50 (UACC-62 melanoma): 14.2 µM
- TGI (UACC-62 melanoma): 27.7 µM
- GI50 (COLO 205 colon): 23 µM
- TGI (COLO 205 colon): 71.8 µM
- GI50 (OVCAR-5 ovarian): 10.3 µM
- TGI (OVCAR-5 ovarian): 23 µM
- GI50 (EKVX NSCLC): 36 µM
- TGI (EKVX NSCLC): > 100 µM
- GI50 (M14 melanoma): 14.9 µM
- TGI (M14 melanoma): 29 µM
- GI50 (T-47D breast): 6.91 µM
- TGI (T-47D breast): > 100 µM
- GI50 (HCT-116 colon): 14.9 µM
- TGI (HCT-116 colon): 28.1 µM
- GI50 (HS 578T breast): 3.18 µM
- TGI (HS 578T breast): 14.7 µM
- GI50 (NCI-H460 lung): 13.3 µM
- TGI (NCI-H460 lung): 30.4 µM
- GI50 (MDA-MB-435): 14.7 µM
- TGI (MDA-MB-435): 28.3 µM
- GI50 (UO-31 renal): 14.2 µM
- TGI (UO-31 renal): 33.2 µM
- GI50 (RXF 393 renal): 3.23 µM
- TGI (RXF 393 renal): 8.45 µM
- GI50 (OVCAR-3 ovarian): 15.5 µM
- TGI (OVCAR-3 ovarian): 31.6 µM
- GI50 (CAKI-1 renal): 18 µM
- TGI (CAKI-1 renal): 33.9 µM
- GI50 (SN12C renal): 16.2 µM
- TGI (SN12C renal): 31.5 µM
- GI50 (HCT-15 colon): 17.2 µM
- TGI (HCT-15 colon): 42.6 µM
- GI50 (HOP-62 NSCLC): 17.6 µM
- TGI (HOP-62 NSCLC): 32.5 µM
- GI50 (LOX IMVI melanoma): 3.62 µM
- TGI (LOX IMVI melanoma): 16.4 µM
- GI50 (ACHN renal): 15.4 µM
- TGI (ACHN renal): 43.4 µM
- GI50 (BT-549 breast): 20.1 µM
- TGI (BT-549 breast): 38.7 µM
- GI50 (K-562 leukemia): 15.1 µM
- TGI (K-562 leukemia): > 100 µM
- GI50 (NCI-H226 lung): 24.5 µM
- TGI (NCI-H226 lung): 45.6 µM
- GI50 (U251 CNS): 11.3 µM
- TGI (U251 CNS): 32.2 µM
